# Values quoted from earlier work, collected in doi:10.1101/2023.04.03.535218, “Distributable, Metabolic PET Reporting of Tuberculosis” (bioRxiv, 2023).
# Biological target: T1, OtsA^Sf (Escherichia coli, UniProt P31677)
# T1 construct: C-terminally tagged, purified on Ni-NTA
# T1 sequence (P31677 2-474): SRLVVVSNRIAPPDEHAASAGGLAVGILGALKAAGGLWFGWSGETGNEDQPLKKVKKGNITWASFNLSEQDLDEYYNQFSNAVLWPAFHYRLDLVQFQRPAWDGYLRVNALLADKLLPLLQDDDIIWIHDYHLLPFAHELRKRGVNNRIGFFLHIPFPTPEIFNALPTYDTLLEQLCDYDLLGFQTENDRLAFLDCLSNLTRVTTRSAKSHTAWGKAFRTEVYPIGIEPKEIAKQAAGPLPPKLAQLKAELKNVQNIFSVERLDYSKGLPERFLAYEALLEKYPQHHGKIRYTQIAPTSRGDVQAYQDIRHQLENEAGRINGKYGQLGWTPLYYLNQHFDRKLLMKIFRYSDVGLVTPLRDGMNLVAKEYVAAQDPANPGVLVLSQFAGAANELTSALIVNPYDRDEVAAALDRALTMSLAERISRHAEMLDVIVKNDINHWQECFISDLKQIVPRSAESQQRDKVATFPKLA
# Experiment: NADH-linked continuous assay (Methods)
# Type: biochemical
# Details: co-substrate UDP-Glc; table note a (taken from Reference 41) is also set on this row, text presents it as own
compound,measurement,value
O=P(O)(O)OC[C@H]1OC(O)[C@H](O)[C@@H](O)[C@@H]1O (stereo partly shown) [G6P],Km,4.9 ± 0.5 mM
